Results: patent US20250188411A1, “METHOD FOR SELECTIVE REMOVAL OF […] PLURIPOTENT STEM CELLS” (Buddhist Tzu Chi Medical Foundation, priority 2023, published 2025)

How the values were obtained:
[1] = system: embryoid bodies derived from human iPSCs; test: Treatment of embryoid bodies from human iPSCs (SFEB suspension, one day), morphology and trypan blue staining; type: cell-based; conditions: 24 hours
Protocol: (§1) Step 1: iPSCs were aggregated into suspended embryoid bodies (EBs), which is an initial step of differentiation. iPSCs were treated with 1 mg/mL Dispase II until the edges rolled up, then rinsed three times with PBS. The iPSCs were collected by a cell scraper and dispersed into cell mass with appropriate size by visual inspection of pipet. After suspended in Essential 6 medium containing RevitaCell, and the iPSCs were transferred to a sterile, non-adherent 6 cm2 culture plate for a 2-day suspension culture, with daily medium changing.
(§2) a. Drug Efficacy and Concentration Testing: n-Butylidenephthalide was diluted to different concentrations and administered to cells at final concentrations ranging from 50 to 750 μM. The types of administered cells include cultured human iPSCs, human iPSCs aggregated into SFEBs for one day, neural stem cells on day 10 of SFEB differentiation, neurons on day 25 of SFEB differentiation, and cells on day 5 of neural differentiation by the adhesion. The concentrations and treatment durations were as described in the Examples.
Cultured and collected iPSCs were aggregated into spheres using the SFEB suspension method and suspended in culture medium to simulate the three-dimensional structure of general pluripotent cell differentiation and transplantation. After only one day of suspension differentiation, the cells aggregated into structurally complete spheres (embryoid bodies).

[2] = system: neuronal cells differentiated from human iPSCs; test: Treatment of neuronal cell spheroids on day 25 of SFEB differentiation, morphology and NeuN/NF immunofluorescence; type: cell-based
Protocol: (§3) 3. Neural Differentiation of Human iPSCs Using the Serum-Free Embryoid Body (SFEB) Method: The differentiation of iPSCs into neural cells was performed in four steps. The first three steps involved SFEB suspension, in which suspended spheroid cells were cultured for 35 days, and the fourth step is a 3-day cell adhesion growth:
as §1
(§4) Step 2: The EBs were transferred to a 15 mL centrifuge tube for settlement at room temperature, and the EBs were cultured in suspension for 2 days by adding neural induction medium (NI medium, Gibco) after removal of the supernatant. […]
(§5) Step 4: The cells were attached to a culture plate coated with 1% basement membrane matrix or laminin/ornithine. […] The cells grow outward from the center of the colony, and after 3 days of continued culture, the cells were ready for experimentation. […]

[3] = system: neural stem cells differentiated from human iPSCs; test: Treatment of neural stem cells on day 10 of SFEB differentiation, morphology and NeuN/NF immunofluorescence; type: cell-based
Protocol: as §3, §1, §4, §5

[4] = system: undifferentiated pluripotent stem cells expressing Oct-4; test: Oct-4 / N-cadherin immunofluorescence on day 5 of neural stem cell adhesion differentiation; type: cell-based, human; conditions: 50, 100 and 200 μM for 24 hours on day 5 of differentiation, FIG. 6
Protocol: 4. Neural Stem Cell Adhesion Differentiation of Human iPSCs (Neural Stem Cell Adhesion Differentiation Method): Human iPSCs, cultured in a feeder-free environment, were subcultured at a 1:10 ratio for neural stem cell differentiation. The differentiation was induced by using a neural induction medium composed of DMEM/F12 (2:1) and N2 supplement, with the addition of basic FGF (10 mg/mL), SB431542 (2 μM), and CHIR99021 (3 μM). The medium was changed every two days with proteins and small molecules re-added. Culture time for this neural stem cell adhesion differentiation is up to 7 days.
as §2
a. Immunofluorescence Staining Method: Chamber slides were surface-treated with 1% basement membrane matrix for 3 to 4 hours, and the slides were set aside after the matrix was removed. […] The slides were stored in the dark at 4° C. for subsequent analysis under a fluorescence microscope. […]

[5] = system: differentiated neurons derived from human iPSCs; test: Calcium ion imaging of differentiated neurons after KCl and glutamic acid stimulation; type: cell-based; conditions: tested day 38
Protocol: d. Calcium Ion Imaging Analysis: Cells were seeded onto 10 mm diameter coverslips coated with Geltrex and cultured in NB medium supplemented with RevitaCell and Compound E for 3 days. A 1 μM solution of Fluo-4 was prepared in physiological buffer. The coverslips were incubated in the Fluo-4 solution at 37° C. for 40 minutes, followed by incubation in physiological buffer at 37° C. for 20 minutes. The coverslips were then transferred to a calcium imaging chamber for perfusion imaging. The cells were perfused with physiological buffer for 30 seconds, then switched to 60 mM KCl perfusion for one minute, followed by physiological buffer perfusion for five minutes. Subsequently, the cells were perfused with 1 mM L-glutamic acid for one minute, followed by physiological buffer perfusion for five minutes. Images were captured using a Nikon ECLIPSE Ti2-E microscope and analyzed with NIS-Elements AR software.
Three sets of cells were prepared: one set of cells cultured without n-butylidenephthalide treatment (Ctrl), another set cultured with 500 μM n-butylidenephthalide for 120 hours on day 10 of differentiation (NPC-BP500), and a third set cultured with 500 μM n-butylidenephthalide for 120 hours on day 25 of differentiation (Neuron-BP500). […]

[6] = system: dopamine neurons differentiated from human iPSCs; test: Identification of differentiating dopamine neurons (CHSF-DA method): markers, dopamine ELISA, patch-clamp; type: cell-based; conditions: 100 μM on days 23 to 28 of CHSF-DA differentiation, FIGS. 8A to 8M
Protocol: 2. Dopaminergic Neuron Adherent Differentiation of Human iPSCs (CHSF-DA Differentiation Method): Human iPSCs, cultured in feeder-free environment, were subcultured at a 1:10 ratio for dopaminergic neurons differentiation. For induction, a neural induction medium composed of DMEM/F12 (2:1) and N2 supplement were used and dopaminergic precursor cell-inducing factors basic FGF (FGF-basic, as known as FGF-2 or bFGF) (10 mg/mL), SB431542 (2 μM), CHIR99021 (7.5 μM), SAG (1 μM), and LDN193189 (0.2 μM) were added in days 1 to 12 of the differentiation process. On day 13 of the differentiation process, the medium was switched to a neuron culture medium (Neurobasal medium and N2/B27 supplements), with SAG (0.5 μM) added from days 13 to 18. SAG was removed on day 18, and 100 μM of n-butylidenephthalide was added on days 23 to 28 for a total of 6 days. The cells were subsequently cultured in Neurobasal medium with N2/B27 supplements, the medium was changed every 2 days during the differentiation process with proteins and small molecules re-added.
b. Application of n-Butylidenephthalide in Dopaminergic Neuron Preparation: 100 μM of n-Butylidenephthalide was added from days 23 to 28 during the CHSF-DA differentiation process for a total of 6 days.
a. […] The slides were stored in the dark at 4° C. for subsequent analysis under a fluorescence microscope. […]

[7] = system: human induced pluripotent stem cells (iPSCs); test: Treatment of cultured human iPSCs with n-butylidenephthalide, cell morphology and survival; type: cell-based; conditions: for number of human iPSCs versus control (Ctrl) and DMSO control: 100 μM
Protocol: 1. Culture of iPSCs in Essential 8 Feeder-Free Culture Medium: Human iPSCs were cultured in Essential 8 medium (Gibco) in culture dishes treated with basement membrane matrix (Matrigel). Subculture was performed when the cells reached 70% to 80% confluence, approximately 3 to 5 days. During subculture, the cells were rinsed twice with PBS until the edges began to lift, followed by treatment with a cell dissociation regent (Accutase) for 1 to 5 minutes to round up most of the cells. The cell dissociation regent was then diluted with DMEM/F12, and DMEM medium was added. The cells were scraped with even force by a cell scraper, dispersed into cell mass with appropriate size by mechanical force, and plated at an appropriate ratio (about 1:5 to 1:10) with 10 μM of Y27632 added.
as §2
Human induced pluripotent stem cells (iPSCs) were collected and cultured in Essential 8 medium without a feeder layer. After 24 hours of treatment with different concentrations of n-butylidenephthalide (100 μM, 200 μM, 500 μM, and 750 μM), the cell morphology was shown in FIG. 1A.

[8] = system: residual undifferentiated pluripotent stem cells; conditions: early treatment; cited from earlier work

| SMILES | viable cells by trypan blue staining ([1]; 200 μM) | viable cells by trypan blue staining ([1]; 500 μM) | morphology of suspended spheres (embryoid bodies) ([1]; 500 μM, FIG. 2) | damage to neuronal cell spheroids or cell death ([2]; 50, 100, 200 and 500 μM for 120 hours from day 25 of differentiation, FIG. 4B) | NeuN and NF expression and morphology of treated mature neurons ([2]; treated from day 25, cultured until day 38, FIG. 4C) | cell death or morphological changes of suspended neural stem cell spheres ([3]; 50, 100, 200 and 500 μM for 120 hours from day 10 of differentiation, FIG. 3A) | ability of treated neural stem cells to differentiate into mature neurons (NeuN, NF) ([3]; treated from day 10, cultured until day 38, FIG. 3B) | proportion of undifferentiated pluripotent stem cells expressing Oct-4 [4] | calcium ion changes after KCl and glutamic acid stimulation versus Ctrl ([5]; NPC-BP500: 500 μM for 120 hours on day 10 of differentiation) | calcium ion changes after KCl and glutamic acid stimulation versus Ctrl ([5]; Neuron-BP500: 500 μM for 120 hours on day 25 of differentiation) | effect on specific protein expression and neurological function of dopamine neurons [6] | number of human iPSCs versus control (Ctrl) and DMSO control ([7]; 24 hours, FIG. 1A) | number of human iPSCs versus control (Ctrl) and DMSO control ([7]; 48 hours, FIG. 1B) | cell morphology of human iPSCs ([7]; 200 μM, 48 hours, FIG. 1B) | adherence and survival of human iPSCs ([7]; concentrations above 500 μM, 24 hours, FIG. 1A) | survival of human iPSCs ([7]; concentrations above 500 μM, 48 hours, FIG. 1B) | presence of residual undifferentiated pluripotent stem cells [8] |
| --- | --- | --- | --- | --- | --- | --- | --- | --- | --- | --- | --- | --- | --- | --- | --- | --- | --- |
| CCCC=C1OC(=O)c2ccccc21 [n-butylidenephthalide] | decrease in viable cells | no viable cells were observed | all dispersed and died | no damage to the spheroids or cell death was observed | exhibiting typical nerve fiber morphology | no cell death or morphological changes were observed | able to differentiate normally into mature neurons | decreased significantly | no statistically significant differences | no statistically significant differences | did not affect the expression of specific proteins or the neurological function of dopamine neurons | significantly lower | significantly lower | obvious floating and cell death | did not adhere or survive | No cells survived | – |
| O=c1c(O)c(-c2ccc(O)c(O)c2)oc2cc(O)cc(O)c12 [quercetin] | – | – | – | – | – | – | – | – | – | – | – | – | – | – | – | – | can reduce |
